{
  "source": "PubChem BioAssay AID1259411",
  "about": "(Chemical Carcinogenesis Research Information System (CCRIS), 2018)",
  "test_system": "rodent carcinogenicity bioassays, tumor incidence",
  "experiment": "CCRIS carcinogenicity studies",
  "conditions": "Dose: 0, Dose: 0",
  "in_short": "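Archive of carcinogenicity, mutagenicity, tumor promotion and tumor inhibition results drawn from journals, NCI reports and other sources, expert-reviewed; covers 1985-2011 and is no longer updated.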",
  "note": "Activity calls are given as the source filed them. The rule behind the calls is not given here.",
  "data": [
    {"molecule": "CCc1ccccc1", "values": [
      {"measurement": "carcinogen call", "setting": "Species: MOUSE, Strain/Sex: B6C3F1/FEMALE, Route: INHALATION, 75, 250, 750 PPM 6 HR/D 5 D/WK FOR 103 WK (STUDY DURATION: 104 WK), 75, 250, 750 PPM 6 HR/D 5 D/WK FOR 103 WK (STUDY DURATION: 104 WK), Tumor Site: Type of Lesion: LIVER: HEPATOCELLULAR ADENOMA, HEPATOCELLULAR ADENOMA OR CARCINOMA", "value": "active; positive"},
      {"measurement": "carcinogen call", "setting": "Species: MOUSE, Strain/Sex: B6C3F1/MALE, Route: INHALATION, 75, 250, 750 PPM 6 HR/D 5 D/WK FOR 103 WK (STUDY DURATION: 104 WK), 75, 250, 750 PPM 6 HR/D 5 D/WK FOR 103 WK (STUDY DURATION: 104 WK), Tumor Site: Type of Lesion: LUNG: ALVEOLAR/BRONCHIOLAR ADENOMA, ALVEOLAR/BRONCHIOLAR ADENOMA OR CARCINOMA", "value": "active; positive"},
      {"measurement": "carcinogen call", "setting": "Species: RAT, Strain/Sex: F344/FEMALE, Route: INHALATION, 75, 250, 750 PPM 6 HR/D 5 D/WK FOR 104 WK (STUDY DURATION: 105 WK), 75, 250, 750 PPM 6 HR/D 5 D/WK FOR 104 WK (STUDY DURATION: 105 WK), Tumor Site: Type of Lesion: KIDNEY (RENAL TUBULE): ADENOMA", "value": "active; positive"},
      {"measurement": "carcinogen call", "setting": "Species: RAT, Strain/Sex: F344/MALE, Route: INHALATION, 75, 250, 750 PPM 6 HR/D 5 D/WK FOR 104 WK (STUDY DURATION: 105 WK), 75, 250, 750 PPM 6 HR/D 5 D/WK FOR 104 WK (STUDY DURATION: 105 WK), Tumor Site: Type of Lesion: KIDNEY (RENAL TUBULE): ADENOMA", "value": "active; positive"},
      {"measurement": "carcinogen call", "setting": "Species: RAT, Strain/Sex: STRAIN-CD/FEMALE, Route: INTRAGASTRIC, 500 MG/KG IN OLIVE OIL 1/D 4-5 D/WK FOR 104 WK (STUDY DURATION: 104 WK)", "value": "inactive; negative"},
      {"measurement": "carcinogen call", "setting": "Species: RAT, Strain/Sex: STRAIN-CD/MALE, Route: INTRAGASTRIC, 500 MG/KG IN OLIVE OIL 1/D 4-5 D/WK FOR 104 WK (STUDY DURATION: 104 WK)", "value": "inactive; negative"}
    ]},
    {"molecule": "CCC1(c2ccccc2)C(=O)NCNC1=O", "values": [
      {"measurement": "carcinogen call", "setting": "Species: MOUSE, Strain/Sex: B6C3F1/FEMALE, Route: ORAL, 300, 600, 1300 PPM IN DIET FOR 104 WK (STUDY DURATION: 104 WK), 300, 600, 1300 PPM IN DIET FOR 104 WK (STUDY DURATION: 104 WK), Tumor Site: Type of Lesion: LIVER: HEPATOCELLULAR ADENOMA, HEPATOCELLULAR CARCINOMA, OR HEPATOBLASTOMA", "value": "active; positive"},
      {"measurement": "carcinogen call", "setting": "Species: MOUSE, Strain/Sex: B6C3F1/MALE, Route: ORAL, 300, 600, 1300 PPM IN DIET FOR 104 WK (STUDY DURATION: 104 WK), 300, 600, 1300 PPM IN DIET FOR 104 WK (STUDY DURATION: 104 WK), Tumor Site: Type of Lesion: LIVER: HEPATOCELLULAR ADENOMA, HEPATOCELLULAR CARCINOMA, OR HEPATOBLASTOMA, THYROID GLAND: FOLLICULAR CELL ADENOMA", "value": "active; positive"},
      {"measurement": "carcinogen call", "setting": "Species: RAT, Strain/Sex: F344/FEMALE, Route: ORAL, 600, 1300, 2500 PPM IN DIET FOR 104 WK (STUDY DURATION: 104 WK), 600, 1300, 2500 PPM IN DIET FOR 104 WK (STUDY DURATION: 104 WK)", "value": "inactive; negative"},
      {"measurement": "carcinogen call", "setting": "Species: RAT, Strain/Sex: F344/MALE, Route: ORAL, 600, 1300, 2500 PPM IN DIET FOR 104 WK (STUDY DURATION: 104 WK), 600, 1300, 2500 PPM IN DIET FOR 104 WK (STUDY DURATION: 104 WK), Tumor Site: Type of Lesion: THYROID GLAND: FOLLICULAR CELL ADENOMA, FOLLICULAR CELL ADENOMA OR CARCINOMA, KIDNEY: RENAL TUBULE ADENOMA OR CARCINOMA", "value": "equivocal"}
    ]},
    {"molecule": "Cc1cn([C@H]2C[C@H](N=[N+]=[N-])[C@@H](CO)O2)c(=O)[nH]c1=O", "values": [
      {"measurement": "carcinogen call", "setting": "Species: MOUSE, Strain/Sex: B6C3F1/FEMALE, Route: GAVAGE, 30, 60, 120 MG/KG BW IN 0.5% METHYLCELLULOSE ADMINISTERED IN TWO EQUAL DOSES DAILY 5 D/WK FOR 105 WK (STUDY DURATION:, 30, 60, 120 MG/KG BW IN 0.5% METHYLCELLULOSE ADMINISTERED IN TWO EQUAL DOSES DAILY 5 D/WK FOR 105 WK (STUDY DURATION:, Tumor Site: Type of Lesion: VAGINA: SQUAMOUS CELL CARCINOMA, SQUAMOUS CELL PAPILLOMA OR CARCINOMA", "value": "active; positive"},
      {"measurement": "carcinogen call", "setting": "Species: MOUSE, Strain/Sex: B6C3F1/MALE, Route: GAVAGE, 30, 60, 120 MG/KG BW IN 0.5% METHYLCELLULOSE ADMINISTERED IN TWO EQUAL DOSES DAILY 5 D/WK FOR 105 WK (STUDY DURATION:, 30, 60, 120 MG/KG BW IN 0.5% METHYLCELLULOSE ADMINISTERED IN TWO EQUAL DOSES DAILY 5 D/WK FOR 105 WK (STUDY DURATION:, Tumor Site: Type of Lesion: KIDNEY: RENAL TUBULE ADENOMA, RENAL TUBULE CARCINOMA, HARDERIAN GLAND: ADENOMA, ADENOMA OR CARCINOMA", "value": "equivocal"},
      {"measurement": "carcinogen call", "setting": "Species: MOUSE, Strain/Sex: CD-1/FEMALE, Route: GAVAGE, 30, 60, 120 MG/KG/D ON DAY 91 OF STUDY DOSES LOWERED TO 20, 30, 40 MG/KG (STUDY DURATION: 22 MO), 30, 60, 120 MG/KG/D ON DAY 91 OF STUDY DOSES LOWERED TO 20, 30, 40 MG/KG (STUDY DURATION: 22 MO), Tumor Site: Type of Lesion: VAGINA: SQUAMOUS CELL CARCINOMA", "value": "active; positive"},
      {"measurement": "carcinogen call", "setting": "Species: MOUSE, Strain/Sex: CD-1/FEMALE, Route: INTRAVAGINAL, 5, 20 MG/ML IN 0.9% SALINE ADMINISTERED AT 0.2 ML 2/D (STUDY DURATION: 24 MO), 5, 20 MG/ML IN 0.9% SALINE ADMINISTERED AT 0.2 ML 2/D (STUDY DURATION: 24 MO), Tumor Site: Type of Lesion: VAGINA: SQUAMOUS CELL CARCINOMA", "value": "active; positive"},
      {"measurement": "carcinogen call", "setting": "Species: MOUSE, Strain/Sex: CD-1/MALE, Route: GAVAGE, 30, 60, 120 MG/KG/D ON DAY 91 OF STUDY DOSES LOWERED TO 20, 30, 40 MG/KG/D (STUDY DURATION: 19 MO), 30, 60, 120 MG/KG/D ON DAY 91 OF STUDY DOSES LOWERED TO 20, 30, 40 MG/KG/D (STUDY DURATION: 19 MO)", "value": "inactive; negative"},
      {"measurement": "carcinogen call", "setting": "Species: Mouse, Strain/Sex: Swiss (CD-1)/Female F1 Generation, Route: In utero, 50, 100, 200, 300 mg/kg by gavage to F0 generation females 7 d/wk for 29-39 d (delivery day): females mated with unex, 50, 100, 200, 300 mg/kg by gavage to F0 generation females 7 d/wk for 29-39 d (delivery day): females mated with unex", "value": "inactive; negative; decreased litter size and fertility rates at two highest doses"},
      {"measurement": "carcinogen call", "setting": "Species: Mouse, Strain/Sex: Swiss (CD-1)/Male F1 Generation, Route: In utero, 50, 100, 200, 300 mg/kg by gavage to F0 generation females 7 d/wk for 29-39 d (delivery day): females mated with unex, 50, 100, 200, 300 mg/kg by gavage to F0 generation females 7 d/wk for 29-39 d (delivery day): females mated with unex, Tumor Site: Type of Lesion: Lung, Alveolar/Bronchiolar Carcinoma (5/50, 11/50, 6/50, 11/37, 8/32), Alveolar/Bronchiolar adenoma or carcinoma (14/50,, Tumor Site: Type of Lesion: Lung, Alveolar/Bronchiolar Carcinoma (5/50, 11/50, 6/50, 11/37, 8/32), Alveolar/Bronchiolar adenoma or carcinoma (14/50", "value": "active; positive; decreased litter size and fertility rates at two highest doses"},
      {"measurement": "carcinogen call", "setting": "Species: RAT, Strain/Sex: STRAIN-CD/MALE, Route: GAVAGE, 80, 220, 600 MG/KG/D, HIGH DOSE LOWERED TO 450 MG/KG THEN 300 MG/KG ON DAYS 91 AND 278, RESPECTIVELY (STUDY DURATION:, 80, 220, 600 MG/KG/D, HIGH DOSE LOWERED TO 450 MG/KG THEN 300 MG/KG ON DAYS 91 AND 278, RESPECTIVELY (STUDY DURATION:", "value": "inactive; negative"}
    ]},
    {"molecule": "Cc1c[nH]c(=O)[nH]c1=O", "values": [
      {"measurement": "carcinogen call", "setting": "Species: RAT, Strain/Sex: F344/MALE, Route: ORAL, 1, 3% IN DIET FOR 36 WK (STUDY DURATION: 40 WK), 1, 3% IN DIET FOR 36 WK (STUDY DURATION: 40 WK), Tumor Site: Type of Lesion: BLADDER: PAPILLOMA, CARCINOMA", "value": "active; positive"}
    ]}
  ]
}
